In patent publication US20260083865A1, “PROSTATE SPECIFIC MEMBRANE ANTIGEN (PSMA) LIGANDS AND USE THEREOF” (priority 2022, published 2026):
Where two headings read alike, the source gives them in different places. Numbered stars: 1 amine (or outer) side, 2 acyl side, 3 side chain; on linkers, the order of the positions; unused ones are H or OH. Bridge positions count the residues as written; N and C are the ends. Square brackets hold non-standard residues; d marks the D form. Peptide text beside a SMILES is read from it. * marks the point of attachment. TtdsdLys(DOTA)NH2 = NC(=O)[C@@H](CCCCNC(=O)CN1CCN(CC(=O)O)CCN(CC(=O)O)CCN(CC(=O)O)CC1)NC(=O)CCC(=O)NCCCOCCOCCOCCCN*; X3 = O=C(O)CN1CCN(CC(=O)O)CCN(CC(=O)NCCCOCCOCCOCCCN*)CCN(CC(=O)O)CC1; DOTA = O=C(O)CN1CCN(CC(=O)O)CCN(CC(=O)*)CCN(CC(=O)O)CC1; X10 = NC(=O)CN1CCN(CC(=O)O)CCN(CC(=O)*)CCN(CC(=O)O)CC1; Phe(4-Cl) = N[C@@H](Cc1ccc(Cl)cc1)C(=O)O; Arg(Me) = CNC(=N)NCCC[C@H](N)C(=O)O; Lys(Me2) = CN(C)CCCC[C@H](N)C(=O)O; X4 = O=C(CN1CCC(N[*:1])CC1)[*:2]; X1 = O=C(CC1CCN([*:1])CC1)[*:2]; Lys(Me) = CNCCCC[C@H](N)C(=O)O; d(αMeS) = C[C@@](N)(CO)C(=O)O; Suc = O=C(CCC(=O)[*:2])[*:1]; Tle = CC(C)(C)[C@H](N)C(=O)O; Nle = CCCC[C@H](N)C(=O)O; Hexanoyl = CCCCCC(=O)*; Aib = CC(C)(N)C(=O)O

Columns and labels:
[1] = target: T1, Fc-fusion protein of human PSMA (hPSMA-Fc) (Homo sapiens, UniProt Q04609); experiment: Surface plasmon resonance assay (Biacore T200, single cycle kinetic); format: binding; details: read-out: pKD CAT (converted)
T1 construct: purchased Acro Biosystems PSA-H5264
T1 sequence (Q04609 44-750 limits assumed): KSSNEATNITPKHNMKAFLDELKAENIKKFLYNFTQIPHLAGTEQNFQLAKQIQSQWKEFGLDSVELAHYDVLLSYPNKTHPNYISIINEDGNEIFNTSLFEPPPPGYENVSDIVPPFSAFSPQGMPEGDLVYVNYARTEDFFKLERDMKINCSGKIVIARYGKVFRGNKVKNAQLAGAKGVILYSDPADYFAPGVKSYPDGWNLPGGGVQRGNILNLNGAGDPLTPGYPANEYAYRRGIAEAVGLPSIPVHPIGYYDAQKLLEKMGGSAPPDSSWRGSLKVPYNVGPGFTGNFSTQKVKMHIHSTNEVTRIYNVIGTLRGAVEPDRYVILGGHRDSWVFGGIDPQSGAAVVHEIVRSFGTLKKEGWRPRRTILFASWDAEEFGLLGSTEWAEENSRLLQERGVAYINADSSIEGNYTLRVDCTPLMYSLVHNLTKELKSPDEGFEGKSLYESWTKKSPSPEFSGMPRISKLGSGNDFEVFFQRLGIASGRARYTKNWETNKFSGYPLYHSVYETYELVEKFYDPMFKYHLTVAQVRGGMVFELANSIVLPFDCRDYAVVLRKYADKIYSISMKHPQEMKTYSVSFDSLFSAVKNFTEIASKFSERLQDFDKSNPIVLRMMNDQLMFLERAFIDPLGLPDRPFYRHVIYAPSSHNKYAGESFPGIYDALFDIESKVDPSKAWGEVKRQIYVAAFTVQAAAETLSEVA
Method in brief: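 hPSMA-Fc was captured (~1000 RU) on an Fc-binding-peptide CM5 chip, and compounds were run in single cycle kinetic mode at 25° C in HBST with 0.1% DMSO. Double-blank-corrected sensorgrams were fitted to a 1:1 Langmuir model to give KD, reported as pKD.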

[2] = target: T2, PSMA-expressing C4-2 cells (Homo sapiens, UniProt Q04609); experiment: FACS binding assay (competition with 50 nM PSM-0183); details: read-out: pIC50 [C4-2] CAT (converted)
T2 construct: PSMA-expressing C4-2 cells (ATCC, Cat. No. CRL-3314) were cultured in RPMI-1640; host or cells: C4-2 cells
T2 sequence (Q04609 whole entry): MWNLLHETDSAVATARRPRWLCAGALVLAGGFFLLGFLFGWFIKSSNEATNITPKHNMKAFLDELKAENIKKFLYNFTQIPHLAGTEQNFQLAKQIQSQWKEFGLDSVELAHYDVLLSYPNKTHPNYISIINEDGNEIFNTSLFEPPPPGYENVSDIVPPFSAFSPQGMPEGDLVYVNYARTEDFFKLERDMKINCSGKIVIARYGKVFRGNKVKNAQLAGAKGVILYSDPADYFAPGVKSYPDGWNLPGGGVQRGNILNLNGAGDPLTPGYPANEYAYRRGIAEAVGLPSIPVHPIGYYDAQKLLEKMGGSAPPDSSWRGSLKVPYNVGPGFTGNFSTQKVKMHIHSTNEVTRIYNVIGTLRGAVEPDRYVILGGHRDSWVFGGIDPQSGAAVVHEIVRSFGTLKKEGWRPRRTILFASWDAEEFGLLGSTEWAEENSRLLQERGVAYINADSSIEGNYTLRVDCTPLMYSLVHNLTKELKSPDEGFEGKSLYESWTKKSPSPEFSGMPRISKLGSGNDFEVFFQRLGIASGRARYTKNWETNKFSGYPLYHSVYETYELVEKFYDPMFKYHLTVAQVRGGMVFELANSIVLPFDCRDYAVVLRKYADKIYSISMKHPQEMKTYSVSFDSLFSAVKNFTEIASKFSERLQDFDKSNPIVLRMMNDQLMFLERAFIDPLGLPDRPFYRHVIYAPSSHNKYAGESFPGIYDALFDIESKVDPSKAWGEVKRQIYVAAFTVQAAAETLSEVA
Method in brief: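 C4-2 cells were incubated 1 h at 4 °C with 50 nM AF488-labelled peptide PSM-0183 plus increasing test compound concentrations, then washed twice in ice-cold buffer. Median fluorescence in the AF488 channel was read by flow cytometry. IC50/pIC50 was derived by 4PL fitting of MFI versus concentration.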

[3] = SPR, hPSMA-Fc, single cycle kinetic, 25° C., category
[4] = FACS binding, C4-2 cells, competition with 50 nM PSM-0183, category
[5] = PSMA SPR assay, hPSMA-Fc, 25° C., pKD category
[6] = FACS binding, PSMA-expressing C4-2 cells, pIC50 category
[7] = pKD category for PSMA SPR activity assay, hPSMA-Fc, 25° C.
[8] = pIC50 category of FACS binding, C4-2 cells

Compound | Kd [1, 3] [nM] | IC50 [2, 4] [nM] | other results
C[C@@H](O)[C@H](NC(=O)[C@@H](NC(=O)[C@@H]1CSSC[C@H](NC(=O)[C@H](Cc2ccccc2)NC(=O)C(C)(C)NC(=O)[C@@H](NC(=O)CCC(=O)NCCCOCCOCCOCCCNC(=O)CN2CCN(CC(=O)O)CCN(CC(=O)O)CCN(CC(=O)O)CC2)[C@@H](C)O)C(=O)N[C@@H](CCCCN)C(=O)N[C@@H](CCCNC(=N)N)C(=O)NC(C)(C)C(=O)N[C@@H](CC(N)=O)C(=O)N1)C(C)(C)C)C(N)=O [PSM-0259, DOTA-Ttds-Thr-Aib-Phe-[Cys-Lys-Arg-Aib-Asn-Cys]-Tle-Thr-NH2] ({X3-Suc}-T[Aib]FCKR[Aib]NC[Tle]T-NH2; disulfide 4-9) | < 12.6 | < 200 | 
CCCC[C@@H]1NC(=O)[C@@H](NC(=O)[C@H](Cc2ccc(Cl)cc2)NC(=O)C(C)(C)NC(=O)[C@@H](NC(C)=O)[C@@H](C)O)CSSC[C@@H](C(=O)N[C@H](C(=O)N[C@H](C(N)=O)[C@@H](C)O)C(C)(C)C)NC(=O)[C@H](CC(N)=O)NC(=O)C(C)(C)NC(=O)[C@H](CCCNC(=N)N)NC1=O [PSM-0205, Ac-Thr-Aib-Pcf-[Cys-Nle-Arg-Aib-Asn-Cys]-Tle-Thr-NH2] (Ac-T[Aib][Phe(4-Cl)]C[Nle]R[Aib]NC[Tle]T-NH2; disulfide 4-9) | < 12.6 | < 200 | 
CCCC[C@H](NC(=O)[C@@H]1CSSC[C@H](NC(=O)[C@H](Cc2ccccc2)NC(=O)[C@H](C)NC(=O)[C@@H](NC(C)=O)[C@@H](C)O)C(=O)N[C@@H](CCCCN)C(=O)N[C@@H](CCCNC(=N)N)C(=O)N[C@@H](C)C(=O)N[C@@H](C)C(=O)N1)C(=O)N[C@H](C(=O)N[C@@H](CC(=O)O)C(N)=O)[C@@H](C)O [PSM-0335, Ac-Thr-Ala-Phe-[Cys-Lys-Arg-Ala-Ala-Cys]-Nle-Thr-Asp-NH2] (Ac-TAFCKRAAC[Nle]TD-NH2; disulfide 4-9) |  |  | Kd [1, 5]: 12.6 to 126 nM; IC50 [2, 6]: 1260 to 3160 nM
CNCCCC[C@@H]1NC(=O)[C@@H](NC(=O)[C@H](Cc2ccc(Cl)cc2)NC(=O)C(C)(C)NC(=O)[C@@H](NC(=O)CC2CCN(C(=O)CN3CCN(CC(=O)O)CCN(CC(N)=O)CCN(CC(=O)O)CC3)CC2)[C@@H](C)O)CSSC[C@@H](C(=O)N[C@H](C(=O)N[C@H](C(N)=O)[C@@H](C)O)C(C)(C)C)NC(=O)[C@H](CC(N)=O)NC(=O)C(C)(C)NC(=O)[C@H](CCCNC(=N)NC)NC1=O [PSM-0601, LSC-Cmp-Thr-Aib-Pcf-[Cys-Lys(Me)-Arg(Me)-Aib-Aan-Cys]-Tle-Thr-NH] (X10-[X1]T[Aib][Phe(4-Cl)]C[Lys(Me)][Arg(Me)][Aib]NC[Tle]T-NH2; disulfide 5-10) |  |  | Kd ([1]; PSMA SPR assay, category): < 12.6 nM; IC50 ([2]; FACS binding, C4-2 cells, category): < 200 nM
CNC(=N)NCCC[C@@H]1NC(=O)[C@H](CCCCN(C)C)NC(=O)[C@@H](NC(=O)[C@H](Cc2ccc(Cl)cc2)NC(=O)C(C)(C)NC(=O)[C@@H](NC(=O)CC2CCN(C(=O)CN3CCN(CC(=O)O)CCN(CC(=O)O)CCN(CC(=O)O)CC3)CC2)[C@@H](C)O)CSSC[C@@H](C(=O)N[C@H](C(=O)N[C@H](C(N)=O)[C@@H](C)O)C(C)(C)C)NC(=O)[C@H](CC(N)=O)NC(=O)C(C)(C)NC1=O [PSM-0203, DOTA-Cmp-Thr-Aib-Pcf-[Cys-KMe2-Arg(Me)-Aib-Asn-Cys]-Tle-Thr-NH2] ({DOTA}-[X1]T[Aib][Phe(4-Cl)]C[Lys(Me2)][Arg(Me)][Aib]NC[Tle]T-NH2; disulfide 5-10) | < 12.6 | < 200 | 
C[C@@H](O)[C@H](NC(=O)[C@@H](NC(=O)[C@@H]1CSSC[C@H](NC(=O)[C@H](Cc2ccc(Cl)cc2)NC(=O)C(C)(C)NC(=O)CC2CCN(C(=O)CN3CCN(CC(=O)O)CCN(CC(=O)O)CCN(CC(=O)O)CC3)CC2)C(=O)N[C@@H](CCCCN)C(=O)N[C@@H](CCCNC(=N)N)C(=O)NC(C)(C)C(=O)N[C@@H](CC(N)=O)C(=O)N1)C(C)(C)C)C(N)=O [PSM-0248, DOTA-Cmp-Aib-Pcf-[Cys-Lys-Arg-Aib-Asn-Cys]-Tle-Thr-NH2] ({DOTA}-[X1][Aib][Phe(4-Cl)]CKR[Aib]NC[Tle]T-NH2; disulfide 4-9) | 12.6 to 126 | < 200 | 
CC[C@H](C)[C@H](NC(=O)CC1CCN(C(=O)CN2CCN(CC(=O)O)CCN(CC(=O)O)CCN(CC(=O)O)CC2)CC1)C(=O)NC(C)(C)C(=O)N[C@@H](Cc1ccccc1)C(=O)N[C@H]1CSSC[C@@H](C(=O)N[C@H](C(=O)N[C@H](C(N)=O)[C@@H](C)O)C(C)(C)C)NC(=O)[C@H](CC(N)=O)NC(=O)C(C)(C)NC(=O)[C@H](CCCNC(=N)N)NC(=O)[C@H](CCCCN)NC1=O [PSM-0357, DOTA-Cmp-Ile-Aib-Phe-[Cys-Lys-Arg-Aib-Asn-Cys]-Tle-Thr-NH2] ({DOTA}-[X1]I[Aib]FCKR[Aib]NC[Tle]T-NH2; disulfide 5-10) |  |  | Kd [1, 5]: 12.6 to 126 nM; IC50 [2, 6]: 200 to 1260 nM
CCCCCC(=O)N[C@H](C(=O)NC(C)(C)C(=O)N[C@@H](Cc1ccccc1)C(=O)N[C@H]1CSSC[C@@H](C(=O)N[C@H](C(=O)N[C@H](C(=O)NCCCOCCOCCOCCCNC(=O)CCC(=O)N[C@H](CCCCNC(=O)CN2CCN(CC(=O)O)CCN(CC(=O)O)CCN(CC(=O)O)CC2)C(N)=O)[C@@H](C)O)C(C)(C)C)NC(=O)[C@H](CC(N)=O)NC(=O)[C@H](C)NC(=O)[C@H](CCCNC(=N)N)NC(=O)[C@H](CCCCN)NC1=O)[C@@H](C)O [PSM-0462, Hex-Thr-Aib-Phe-[Cys-Lys-Arg-Ala-Asn-Cys]-Tle-Thr-Ttds-lys(DOTA)-NH2] (Hexanoyl-T[Aib]FCKRANC[Tle]T-{TtdsdLys(DOTA)NH2}; disulfide 4-9) |  |  | Kd [1, 7]: < 12.6 nM; IC50 [2, 8]: < 200 nM
C[C@@H](O)[C@H](NC(=O)[C@@H](NC(=O)[C@@H]1CSSC[C@H](NC(=O)[C@H](Cc2ccc(Cl)cc2)NC(=O)C(C)(C)NC(=O)CN2CCC(NC(=O)CN3CCN(CC(=O)O)CCN(CC(=O)O)CCN(CC(=O)O)CC3)CC2)C(=O)N[C@@H](CCCCN)C(=O)N[C@@H](CCCNC(=N)N)C(=O)NC(C)(C)C(=O)N[C@@H](CC(N)=O)C(=O)N1)C(C)(C)C)C(N)=O [PSM-0263] ({DOTA}-[X4][Aib][Phe(4-Cl)]CKR[Aib]NC[Tle]T-NH2; disulfide 4-9) | < 12.6 | < 200 | 
CCCC[C@H](NC(=O)[C@@H]1CSSC[C@H](NC(=O)[C@H](Cc2ccccc2)NC(=O)[C@@H]2CCCN2C(=O)[C@@H](NC(C)=O)[C@@H](C)O)C(=O)N[C@@H](CCCCN)C(=O)N[C@@H](CCCNC(=N)N)C(=O)N[C@@H](C)C(=O)N[C@@H](CC(N)=O)C(=O)N1)C(=O)N[C@H](C(=O)N[C@@H](CC(=O)O)C(N)=O)[C@@H](C)O [PSM-0547, Ac-Thr-Pro-Phe-[Cys-Lys-Arg-Ala-Asn-Cys]-Nle-Thr-Asp-NH2] (Ac-TPFCKRANC[Nle]TD-NH2; disulfide 4-9) |  |  | Kd [1, 7]: 12.6 to 126 nM; IC50 [2, 8]: < 200 nM
C[C@@H](O)[C@H](NC(=O)[C@@H](NC(=O)[C@@H]1CSSC[C@H](NC(=O)[C@H](Cc2ccc(Cl)cc2)NC(=O)[C@@](C)(CO)NC(=O)[C@@H](NC(=O)CC2CCN(C(=O)CN3CCN(CC(=O)O)CCN(CC(=O)O)CCN(CC(=O)O)CC3)CC2)[C@@H](C)O)C(=O)N[C@@H](CCCCN)C(=O)N[C@@H](CCCNC(=N)N)C(=O)NC(C)(C)C(=O)N[C@@H](CC(N)=O)C(=O)N1)C(C)(C)C)C(N)=O [PSM-0256, DOTA-Cmp-Thr-ams-Pcf-[Cys-Lys-Arg-Aib-Asn-Cys]-Tle-Thr-NH2] ({DOTA}-[X1]T[d(αMeS)][Phe(4-Cl)]CKR[Aib]NC[Tle]T-NH2; disulfide 5-10) | < 12.6 | < 200 | 
